Experimental data taken from patent US20240239861A1, “GLUCAGON-RECEPTOR SELECTIVE POLYPEPTIDES AND METHODS OF USE THEREOF” (i2O Therapeutics, Inc., priority 2016, published 2024).
Like-named read-outs stand apart in the source and are kept apart here. *1 amine or outer side, *2 acyl side, *3 side chain or, on linkers, in order; H or OH if unused. Where a SMILES comes first, the peptide text is derived from it. Side-chain parts run from the residue outwards. [ ]: non-standard residue; d: D form. The star is where a group is joined. γGlu = O=C(O)[C@H](CCC(=O)[*:2])N[*:1]; Palmitoyl = CCCCCCCCCCCCCCCC(=O)*; Aib = CC(C)(N)C(=O)O

Assays:
[1] = biological target: human GLP-1R (Homo sapiens, UniProt P43220); assay: Peptide-receptor mediated cAMP accumulation (LANCE Ultra cAMP) in CHO-K1 cells transfected with human GLP-1R; format: cell-based
Sequence of human GLP-1R (P43220 24-463): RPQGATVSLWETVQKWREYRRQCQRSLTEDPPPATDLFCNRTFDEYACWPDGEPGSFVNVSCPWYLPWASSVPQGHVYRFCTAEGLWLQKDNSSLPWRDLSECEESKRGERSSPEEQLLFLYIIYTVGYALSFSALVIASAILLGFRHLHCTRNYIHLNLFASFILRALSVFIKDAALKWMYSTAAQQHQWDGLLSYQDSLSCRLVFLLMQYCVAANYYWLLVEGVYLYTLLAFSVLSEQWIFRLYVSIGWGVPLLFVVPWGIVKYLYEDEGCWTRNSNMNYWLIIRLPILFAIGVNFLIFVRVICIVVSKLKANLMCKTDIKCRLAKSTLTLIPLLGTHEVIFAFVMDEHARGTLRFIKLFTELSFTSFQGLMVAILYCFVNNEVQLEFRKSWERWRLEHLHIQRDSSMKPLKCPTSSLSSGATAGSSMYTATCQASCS

[2] = biological target: human GCGR (Homo sapiens, UniProt P47871); assay: Peptide-receptor mediated cAMP accumulation (LANCE Ultra cAMP) in CHO-K1 cells transfected with human GCGR; format: cell-based
Sequence of human GCGR (P47871 26-477): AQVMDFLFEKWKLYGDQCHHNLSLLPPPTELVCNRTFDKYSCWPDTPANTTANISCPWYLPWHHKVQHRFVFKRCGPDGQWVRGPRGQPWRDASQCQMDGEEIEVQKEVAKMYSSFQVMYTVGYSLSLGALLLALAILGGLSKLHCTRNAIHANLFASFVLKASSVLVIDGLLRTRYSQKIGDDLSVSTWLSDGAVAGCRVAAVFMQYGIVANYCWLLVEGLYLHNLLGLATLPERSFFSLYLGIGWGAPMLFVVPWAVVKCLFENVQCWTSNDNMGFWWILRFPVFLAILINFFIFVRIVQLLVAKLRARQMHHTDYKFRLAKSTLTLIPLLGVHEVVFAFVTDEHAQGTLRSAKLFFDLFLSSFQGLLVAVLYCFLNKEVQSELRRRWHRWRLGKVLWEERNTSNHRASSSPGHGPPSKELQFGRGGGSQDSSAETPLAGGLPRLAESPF

[3] = hGLP1 pEC50 (cAMP mean (n = 3): 11 point curve starting at 1 nM, Table 3)
[4] = Table 7, GLP-1R, read-out: GLP-1R pEC50 (converted)
[5] = read-out: GluR pEC50 (converted)

SMILES	EC50 [1, 3]	EC50 ([2]; Table 3)	EC50 [1, 4]	EC50 [2, 5]
CC(C)C[C@H](NC(=O)[C@H](Cc1ccc(O)cc1)NC(=O)[C@H](CCCCN)NC(=O)[C@H](CO)NC(=O)[C@H](Cc1ccc(O)cc1)NC(=O)[C@H](CC(=O)O)NC(=O)[C@H](CO)NC(=O)[C@@H](NC(=O)[C@H](Cc1ccccc1)NC(=O)[C@@H](NC(=O)CNC(=O)[C@H](Cc1c[nH]cn1)NC(=O)[C@H](CO)NC(=O)[C@@H](N)Cc1ccc(O)cc1)[C@@H](C)O)[C@@H](C)O)C(=O)N[C@@H](CC(=O)O)C(=O)NC(C)(C)C(=O)N[C@@H](CCCCN)C(=O)N[C@@H](CCCNC(=N)N)C(=O)N[C@@H](C)C(=O)N[C@@H](CCC(N)=O)C(=O)N[C@@H](CCC(=O)O)C(=O)N[C@@H](Cc1ccccc1)C(=O)N[C@H](C(=O)NC(C)(C)C(=O)N[C@@H](Cc1c[nH]c2ccccc12)C(=O)N[C@@H](CC(C)C)C(=O)N[C@@H](CCC(=O)O)C(=O)N[C@@H](CC(=O)O)C(=O)N[C@@H](CCC(=O)O)C(=O)N1CCC[C@H]1C(=O)N[C@@H](CCC(=O)O)C(=O)N[C@@H](CO)C(=O)NCC(=O)N[C@@H](C)C(=O)N1CCC[C@H]1C(=O)N1CCC[C@H]1C(=O)N1CCC[C@H]1C(=O)N[C@@H](CO)C(=O)O)C(C)C [Compound A31] (H-YSHGTFTSDYSKYLD[Aib]KRAQEFV[Aib]WLEDEPESGAPPPS-OH; N-terminus assumed)	> 1 nM	0.002 nM		
CC(C)C[C@H](NC(=O)[C@H](Cc1ccc(O)cc1)NC(=O)[C@H](CCCCN)NC(=O)[C@H](CO)NC(=O)[C@H](Cc1ccc(O)cc1)NC(=O)[C@H](CC(=O)O)NC(=O)[C@H](CO)NC(=O)[C@@H](NC(=O)[C@H](Cc1ccccc1)NC(=O)[C@@H](NC(=O)CNC(=O)[C@H](Cc1c[nH]cn1)NC(=O)[C@H](CO)NC(=O)[C@@H](N)Cc1ccc(O)cc1)[C@@H](C)O)[C@@H](C)O)C(=O)N[C@@H](CC(=O)O)C(=O)NC(C)(C)C(=O)N[C@@H](CCCCN)C(=O)N[C@@H](CCCNC(=N)N)C(=O)N[C@@H](C)C(=O)N[C@@H](CCC(N)=O)C(=O)N[C@@H](CCC(=O)O)C(=O)N[C@@H](Cc1ccccc1)C(=O)N[C@H](C(=O)NC(C)(C)C(=O)N[C@@H](Cc1c[nH]c2ccccc12)C(=O)N[C@@H](CC(C)C)C(=O)N[C@@H](CCC(=O)O)C(=O)N[C@@H](CC(=O)O)C(=O)N[C@@H](CCC(=O)O)C(=O)N1CCC[C@H]1C(=O)N[C@@H](CO)C(=O)N[C@@H](CO)C(=O)NCC(=O)N[C@@H](CO)C(=O)N1CCC[C@H]1C(=O)N1CCC[C@H]1C(=O)N1CCC[C@H]1C(=O)N[C@@H](CO)C(=O)O)C(C)C [Compound A22] (H-YSHGTFTSDYSKYLD[Aib]KRAQEFV[Aib]WLEDEPSSGSPPPS-OH; N-terminus assumed)	> 1 nM	0.01 nM		
CCCCCCCCCCCCCCCC(=O)N[C@@H](CCC(=O)NCCCC[C@H](NC(=O)[C@@H](NC(=O)[C@H](Cc1ccccc1)NC(=O)[C@H](CCC(=O)O)NC(=O)[C@H](CCC(N)=O)NC(=O)[C@H](C)NC(=O)[C@H](CCCNC(=N)N)NC(=O)[C@H](CCCCN)NC(=O)C(C)(C)NC(=O)[C@H](CC(=O)O)NC(=O)[C@H](CC(C)C)NC(=O)[C@H](Cc1ccc(O)cc1)NC(=O)[C@H](CCCCN)NC(=O)[C@H](CO)NC(=O)[C@H](Cc1ccc(O)cc1)NC(=O)[C@H](CC(=O)O)NC(=O)[C@H](CO)NC(=O)[C@@H](NC(=O)[C@H](Cc1ccccc1)NC(=O)[C@@H](NC(=O)CNC(=O)[C@H](CCC(N)=O)NC(=O)[C@H](CO)NC(=O)[C@@H](N)Cc1c[nH]c2ccccc12)[C@@H](C)O)[C@@H](C)O)C(C)C)C(=O)N[C@@H](Cc1c[nH]c2ccccc12)C(=O)N[C@@H](CC(C)C)C(=O)N[C@@H](CCC(=O)O)C(=O)N[C@@H](CC(=O)O)C(=O)N[C@@H](CCC(=O)O)C(=O)N1CCC[C@H]1C(=O)N[C@@H](CO)C(=O)N[C@@H](CO)C(=O)NCC(=O)N[C@@H](C)C(=O)N1CCC[C@H]1C(=O)N1CCC[C@H]1C(=O)N1CCC[C@H]1C(=O)N[C@@H](CO)C(=O)O)C(=O)O [Compound B18] (H-WSQGTFTSDYSKYLD[Aib]KRAQEFVK([γGlu-Palmitoyl])WLEDEPSSGAPPPS-OH)			> 1000 nM	0.0631 nM
CC(C)C[C@H](NC(=O)[C@H](Cc1c[nH]c2ccccc12)NC(=O)[C@H](CCCCN)NC(=O)[C@H](CO)NC(=O)[C@H](Cc1c[nH]cn1)NC(=O)[C@H](CC(=O)O)NC(=O)[C@H](CO)NC(=O)[C@@H](NC(=O)[C@H](Cc1ccccc1)NC(=O)[C@@H](NC(=O)CNC(=O)[C@H](Cc1c[nH]cn1)NC(=O)[C@@H](NC(=O)[C@@H](N)Cc1ccc(O)cc1)[C@@H](C)O)[C@@H](C)O)[C@@H](C)O)C(=O)N[C@@H](CC(=O)O)C(=O)N[C@@H](CCC(=O)O)C(=O)N[C@@H](C)C(=O)N[C@@H](CCCNC(=N)N)C(=O)N[C@@H](C)C(=O)N[C@@H](CCC(N)=O)C(=O)N[C@@H](CCC(=O)O)C(=O)N[C@@H](Cc1ccccc1)C(=O)N[C@H](C(=O)N[C@@H](CCCCN)C(=O)N[C@@H](Cc1c[nH]c2ccccc12)C(=O)N[C@@H](CC(C)C)C(=O)N[C@@H](CCC(=O)O)C(=O)N[C@@H](CC(=O)O)C(=O)N[C@@H](CCC(=O)O)C(=O)N1CCC[C@H]1C(=O)N[C@@H](CO)C(=O)N[C@@H](CO)C(=O)NCC(=O)N[C@@H](C)C(=O)N1CCC[C@H]1C(=O)N1CCC[C@H]1C(=O)N1CCC[C@H]1C(=O)N[C@@H](CO)C(=O)O)C(C)C [Compound A41] (H-YTHGTFTSDHSKWLDEARAQEFVKWLEDEPSSGAPPPS-OH; N-terminus assumed)	> 1 nM	0.631 nM		
CC(C)C[C@H](NC(=O)[C@H](Cc1ccc(O)cc1)NC(=O)[C@H](CCCCN)NC(=O)[C@H](CO)NC(=O)[C@H](Cc1ccc(O)cc1)NC(=O)[C@H](CC(=O)O)NC(=O)[C@H](CO)NC(=O)[C@@H](NC(=O)[C@H](Cc1ccccc1)NC(=O)[C@@H](NC(=O)CNC(=O)[C@H](Cc1c[nH]cn1)NC(=O)[C@H](CO)NC(=O)[C@@H](N)Cc1ccc(O)cc1)[C@@H](C)O)[C@@H](C)O)C(=O)N[C@@H](CC(=O)O)C(=O)N[C@@H](CCCCNC(=O)COCCOCCNC(=O)COCCOCCNC(=O)CC[C@H](NC(=O)CCCCCCCCCCCCCCCCC(=O)O)C(=O)O)C(=O)N[C@@H](CCCCN)C(=O)N[C@@H](Cc1ccc(O)cc1)C(=O)N[C@@H](C)C(=O)N[C@@H](CCC(N)=O)C(=O)N[C@@H](CCC(=O)O)C(=O)N[C@@H](Cc1ccccc1)C(=O)N[C@H](C(=O)NC(C)(C)C(=O)N[C@@H](Cc1c[nH]c2ccccc12)C(=O)N[C@@H](CC(C)C)C(=O)N[C@@H](CCC(=O)O)C(=O)N[C@@H](CC(=O)O)C(=O)N[C@@H](CCC(=O)O)C(=O)N1CCC[C@H]1C(=O)N[C@@H](CO)C(=O)N[C@@H](CO)C(=O)NCC(=O)N[C@@H](C)C(=O)N1CCC[C@H]1C(=O)N1CCC[C@H]1C(=O)N1CCC[C@H]1C(=O)N[C@@H](CO)C(=O)O)C(C)C [Compound B7]			> 1000 nM	2.51 nM
CCCCCCCCCCCCCCCC(=O)N[C@@H](CCC(=O)NCCCC[C@H](NC(=O)[C@H](CC(=O)O)NC(=O)[C@H](CO)NC(=O)[C@@H](NC(=O)[C@H](Cc1ccccc1)NC(=O)[C@@H](NC(=O)CNC(=O)[C@H](Cc1c[nH]cn1)NC(=O)[C@H](CO)NC(=O)[C@@H](N)Cc1ccc(O)cc1)[C@@H](C)O)[C@@H](C)O)C(=O)N[C@@H](CO)C(=O)N[C@@H](CCCCN)C(=O)N[C@@H](Cc1ccc(O)cc1)C(=O)N[C@@H](CC(C)C)C(=O)N[C@@H](CC(=O)O)C(=O)N[C@@H](CO)C(=O)N[C@@H](C)C(=O)N[C@@H](CCCNC(=N)N)C(=O)N[C@@H](C)C(=O)N[C@@H](CCC(N)=O)C(=O)N[C@@H](CCC(=O)O)C(=O)N[C@@H](Cc1ccccc1)C(=O)N[C@H](C(=O)N[C@@H](CCCCN)C(=O)N[C@@H](Cc1c[nH]c2ccccc12)C(=O)N[C@@H](CC(C)C)C(=O)N[C@@H](CCC(=O)O)C(=O)N[C@@H](CC(=O)O)C(=O)N[C@@H](CCC(=O)O)C(=O)N1CCC[C@H]1C(=O)N[C@@H](CO)C(=O)N[C@@H](CO)C(=O)NCC(=O)N[C@@H](C)C(=O)N1CCC[C@H]1C(=O)N1CCC[C@H]1C(=O)N1CCC[C@H]1C(=O)N[C@@H](CO)C(N)=O)C(C)C)C(=O)O [Compound B44] (H-YSHGTFTSDK([γGlu-Palmitoyl])SKYLDSARAQEFVKWLEDEPSSGAPPPS-NH2)			63.1 nM	0.00126 nM
CC(C)C[C@H](NC(=O)[C@H](Cc1ccc(O)cc1)NC(=O)[C@H](CCCCN)NC(=O)[C@H](CO)NC(=O)[C@H](Cc1ccc(O)cc1)NC(=O)[C@H](CC(=O)O)NC(=O)[C@H](CO)NC(=O)[C@@H](NC(=O)[C@H](Cc1ccccc1)NC(=O)[C@@H](NC(=O)CNC(=O)[C@H](Cc1c[nH]cn1)NC(=O)[C@H](CO)NC(=O)[C@@H](N)Cc1ccc(O)cc1)[C@@H](C)O)[C@@H](C)O)C(=O)N[C@@H](CC(=O)O)C(=O)NC(C)(C)C(=O)N[C@@H](CCCCN)C(=O)N[C@@H](CCCNC(=N)N)C(=O)N[C@@H](C)C(=O)N[C@@H](CCC(N)=O)C(=O)N[C@@H](CCC(=O)O)C(=O)N[C@@H](Cc1ccccc1)C(=O)N[C@H](C(=O)NC(C)(C)C(=O)N[C@@H](Cc1c[nH]c2ccccc12)C(=O)N[C@@H](CC(C)C)C(=O)N[C@@H](CCC(=O)O)C(=O)N[C@@H](CC(=O)O)C(=O)N[C@@H](CCC(=O)O)C(=O)N[C@@H](CO)C(=O)N[C@@H](CO)C(=O)NCC(=O)N[C@@H](C)C(=O)N1CCC[C@H]1C(=O)N1CCC[C@H]1C(=O)N1CCC[C@H]1C(=O)N[C@@H](CO)C(=O)O)C(C)C [Compound A14] (H-YSHGTFTSDYSKYLD[Aib]KRAQEFV[Aib]WLEDESSGAPPPS-OH; N-terminus assumed)	> 1 nM	0.001 nM		
